# Data from BindingDB's records for patent US20250171431 (Horizon Therapeutics Ireland Dac, 2025).
# Biological target: Insulin-like growth factor 1 receptor (Homo sapiens, UniProt P08069)
# Experiment: Biologic and Pharmacologic Assay
# Procedure: The media was removed and replaced by 50 μL of 1× lysis buffer from the AlphaLISA kit (with 1× of cOmplete™ protease inhibitor). The plates were sealed, and cells were allowed to lyse for 10 min in the shaker before storing the plate at −20° C. until used. The AlphaLISA assay with processed cell lysates were performed as described in the protocol. Briefly, 10 μL of the undiluted sample were loaded to 384 well Optiplates and 5 μL of the acceptor mix (as described in the AlphaLISA kit) was added to each well. The plates were sealed and briefly vortexed followed by the incubation at RT for 3 hours. In the dark, 5 μL of donor mix was added to each well. All plates were sealed and stored at RT overnight. The plates were read in EnVision reader using standard AlphaLISA settings.Compound activity was analyzed using CBIS data analysis suite (ChemInnovation, CA).
# Sequence of Insulin-like growth factor 1 receptor (P08069 31-736 limits assumed): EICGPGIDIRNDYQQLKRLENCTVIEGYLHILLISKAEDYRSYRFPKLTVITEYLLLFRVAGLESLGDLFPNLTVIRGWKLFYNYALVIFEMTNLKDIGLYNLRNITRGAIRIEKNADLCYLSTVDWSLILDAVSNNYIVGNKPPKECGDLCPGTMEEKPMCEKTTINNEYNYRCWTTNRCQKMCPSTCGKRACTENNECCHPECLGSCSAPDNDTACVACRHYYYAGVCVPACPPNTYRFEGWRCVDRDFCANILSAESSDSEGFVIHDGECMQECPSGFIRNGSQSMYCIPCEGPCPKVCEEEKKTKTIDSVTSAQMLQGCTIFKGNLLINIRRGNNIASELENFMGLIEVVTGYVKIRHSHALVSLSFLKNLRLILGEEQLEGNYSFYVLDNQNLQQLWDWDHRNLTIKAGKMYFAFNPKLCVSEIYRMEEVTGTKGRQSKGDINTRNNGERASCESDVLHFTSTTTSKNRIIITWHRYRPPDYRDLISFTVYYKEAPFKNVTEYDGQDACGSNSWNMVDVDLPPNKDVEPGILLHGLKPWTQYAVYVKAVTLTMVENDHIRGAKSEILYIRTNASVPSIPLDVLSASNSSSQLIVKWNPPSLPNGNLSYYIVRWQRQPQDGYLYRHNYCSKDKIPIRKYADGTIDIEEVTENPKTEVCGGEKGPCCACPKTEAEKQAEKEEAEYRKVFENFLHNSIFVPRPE
# Sequence of Insulin-like growth factor 1 receptor (P08069 741-1367 limits assumed): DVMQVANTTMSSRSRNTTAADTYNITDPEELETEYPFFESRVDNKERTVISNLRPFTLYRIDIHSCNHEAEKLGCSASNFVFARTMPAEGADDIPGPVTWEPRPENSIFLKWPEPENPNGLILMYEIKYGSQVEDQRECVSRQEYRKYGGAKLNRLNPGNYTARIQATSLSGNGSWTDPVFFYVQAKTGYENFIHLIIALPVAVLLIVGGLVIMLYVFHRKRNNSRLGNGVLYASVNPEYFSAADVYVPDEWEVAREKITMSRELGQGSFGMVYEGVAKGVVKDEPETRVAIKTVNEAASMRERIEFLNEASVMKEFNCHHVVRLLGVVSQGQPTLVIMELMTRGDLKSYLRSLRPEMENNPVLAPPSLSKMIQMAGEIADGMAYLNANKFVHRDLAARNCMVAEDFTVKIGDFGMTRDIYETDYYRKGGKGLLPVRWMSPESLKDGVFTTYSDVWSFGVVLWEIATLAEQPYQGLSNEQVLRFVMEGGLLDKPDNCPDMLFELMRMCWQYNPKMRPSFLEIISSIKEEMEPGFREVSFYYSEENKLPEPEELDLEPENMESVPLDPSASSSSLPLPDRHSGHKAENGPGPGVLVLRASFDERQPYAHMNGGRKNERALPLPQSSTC
row,Structure (SMILES),IC50
1,"COc1cc(C2CCNCC2(F)F)ccc1Nc1nccc(Nc2cc3cccc(F)c3[nH]c2=O)n1 (stereo not given) [US20250171431, Compound 222]",< 500 nM
2,"COc1cc(Nc2nccc(Nc3cnc4ccc(C#N)cc4c3)n2)ccc1OCCCN1CCCCC1 [US20250171431, Compound 392]",< 500 nM
3,"COc1cc(Nc2nccc(Nc3cnc4ccccc4c3)n2)ccc1N1CCC(N2CCCCC2)CC1 [US20250171431, Compound 1]",< 500 nM
4,"COc1cc(N2CCN(C)CC2)ncc1Nc1nccc(Nc2cc3cccc(F)c3nc2O)n1 [US20250171431, Compound 91]",< 500 nM
5,"COc1cc(Nc2nccc(Nc3cc4cccc(F)c4[nH]c3=O)n2)ccc1C1CCNCC1(F)F (stereo not given) [US20250171431, Compound 208]",< 500 nM
6,"O=S1(=O)CCN([C@H]2CC[C@@H](Oc3ccc(Nc4nccc(Nc5cnc6ccc(Cl)cc6c5)n4)cc3)CC2)CC1 [US20250171431, Compound 309]",< 500 nM
7,"COc1cc(Nc2nccc(Nc3cnc4ccc(Cl)cc4c3)n2)cnc1N1CCNC(C(F)F)C1 (stereo not given) [US20250171431, Compound 483]",< 500 nM
8,"COc1cc(Nc2nccc(Nc3cnc4cc(Cl)ccc4c3)n2)ccc1OCCCN1CCCCC1 [US20250171431, Compound 428]",< 500 nM

# Now from value to compound:
row,IC50,Structure (SMILES)
1,< 500 nM,"COc1cc(Nc2nccc(Nc3cnc4ccccc4c3)n2)ccc1N1CCC(N(C)C)CC1 [US20250171431, Compound 95]"
2,< 500 nM,"COc1cc(Nc2nccc(Nc3cnc4c(Cl)cccc4c3)n2)ccc1O[C@H]1C[C@@H](N(C)C)C1 [US20250171431, Compound 344]"
3,< 500 nM,"COc1cc(Nc2nccc(Nc3cc4cc(Cl)ccc4[nH]c3=O)n2)ccc1O[C@H]1CC[C@@H](N(C)C)CC1 [US20250171431, Compound 247]"
4,> 10000 nM,"COc1cc(Nc2nccc(Nc3cc4ccccc4nc3C#N)n2)cnc1O[C@H]1C[C@@H](N(C)C)C1 [US20250171431, Compound 269]"
5,< 500 nM,"COc1cc(Nc2nccc(Nc3ccc4ncc(Cl)nc4c3)n2)ccc1O[C@H]1C[C@@H](N(C)C)C1 [US20250171431, Compound 134]"
6,500 to 2000 nM,"COc1cc(Nc2nccc(Nc3cnc4c(c3)OC(C)(C)C(=O)N4)n2)ccc1O[C@H]1C[C@@H](N(C)C)C1 [US20250171431, Compound 288]"
7,< 500 nM,"COc1cc(Nc2nccc(Nc3cnc4cncc(F)c4c3)n2)cnc1O[C@H]1C[C@@H](N(C)C)C1 [US20250171431, Compound 88]"
8,< 500 nM,"COc1cc(Nc2nccc(Nc3cc4cccc(F)c4[nH]c3=O)n2)cnc1N1CCC(N(C)C)CC1 [US20250171431, Compound 164]"
9,> 10000 nM,"COc1cc(Nc2nccc(Nc3cc4cccc(F)c4nc3O)n2)cnc1O[C@@H]1C[C@H](N(C)C)C1(C)C [US20250171431, Compound 253]"
10,< 500 nM,"COc1cc(Nc2nccc(Nc3cc(F)c4ncc(Br)cc4c3)n2)ccc1O[C@H]1C[C@@H](N(C)C)C1 [US20250171431, Compound 133]"
11,< 500 nM,"COc1cc(Nc2nccc(Nc3ccc(C4CC4)nc3C(N)=O)n2)ccc1O[C@H]1C[C@@H](N(C)C)C1 [US20250171431, Compound 124]"
12,< 500 nM,"COc1cc(Nc2nccc(Nc3cc4c(F)cccc4[nH]c3=O)n2)ccc1O[C@H]1C[C@@H](N(C)C)C1 [US20250171431, Compound 123]"
